Columns and labels:
human VDR = target: T1, human VDR (Homo sapiens, UniProt P11473); experiment: Reporter gene assay (VDRE-luciferase) in transiently transfected COS7 cells; assay type: cell-based
T1 construct: expressed in transfected cells; host or cells: COS7
T1 sequence (P11473 1-427): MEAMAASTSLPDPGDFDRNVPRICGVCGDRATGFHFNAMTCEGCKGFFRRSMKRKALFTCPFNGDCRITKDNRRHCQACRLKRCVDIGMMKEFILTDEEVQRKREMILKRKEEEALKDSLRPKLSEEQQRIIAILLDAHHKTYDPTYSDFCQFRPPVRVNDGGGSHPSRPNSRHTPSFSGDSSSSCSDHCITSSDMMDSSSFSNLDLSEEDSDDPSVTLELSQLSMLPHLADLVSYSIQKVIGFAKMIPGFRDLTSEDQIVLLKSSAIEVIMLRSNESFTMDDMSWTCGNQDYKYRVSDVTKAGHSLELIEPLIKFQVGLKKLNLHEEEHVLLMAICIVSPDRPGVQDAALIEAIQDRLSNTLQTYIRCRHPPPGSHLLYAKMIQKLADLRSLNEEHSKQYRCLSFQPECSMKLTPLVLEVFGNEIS
Experimental: FIG. 2 is an illustration of the vitamin D receptor agonist activity of 6 using a reporter gene assay in transiently transfected COS7 cells.
Hybrid molecule 6 was tested for calcitriol agonist activity using a reporter gene assay under standard conditions.^25,26 COS7 cells were transiently co-transfected with a plasmid expression vector for the human VDR, a plasmid vector expressing bacterial β-galactosidase from a constitutively active promoter (as an internal control for transfection efficiency), and a vector containing a luciferase reporter gene, under control of a previously described synthetic promoter composed of three high affinity VDREs (Vitamin D Response Elements) placed immediately upstream of a truncated promoter region from the herpes simplex virus thymidine kinase gene.^25 Cells were left overnight in the presence of DNA and transfection reagent (lipofectamine). The media were changed and cells were incubated in fresh media containing either vehicle (DMSO), 1 (100 nM), 3 (15 nM), 1 and 3 combined (100 nM/15 nM) or 6 (100 nM), and incubated a further 36 h.

SCC4 cells [1] = experiment: Protein acetylation in nuclear and cytoplasmic extracts, Western blot with anti-acetyllysine antibody; assay type: cell-based, human; conditions: 6 h
Description: (§1) FIG. 4 is an illustration of the HDAC inhibitory activity of 3 in the SCC4 cell line. FIG. 4A is an illustration of a western blot of nuclear and cytoplasmic extracts of SCC4 cells treated with vehicle (−), 1, or 3 alone or in combination, as indicated. The 55 kDa band corresponds to the molecular weight of tubulin. FIG. 4B illustrates a western blot probed with an antibody directed against acetylated histone H4 (AcH4) showing the effects of the treatments described in A on acetylation of histone H4. FIG. 4C illustrates western blots of the effects of treatments described in A on levels of total alpha-tubulin (left) and acetylated alpha-tubulin (right).
(§2) In preliminary experiments, TSA-inducible protein acetylation was analyzed in nuclear and cytoplasmic extracts of SCC4 cells treated for 6 h with 1, 3, or 1 and 3 and subsequently probed by Western blotting for protein acetylation using an anti-acetyllysine antibody. […] Effects of 3 on histone acetylation specifically, were confirmed by probing for acetylation of histone H4 (FIG. 4B). […] However, it was not clear whether this corresponded to enhanced expression or acetylation. […] This was confirmed by probing cytoplasmic fractions with an antibody that recognized α-tubulin (FIG. 4C). Calcitriol (1) had no effect on the acetylation of α-tubulin, and none of the treatments had any substantial effect on total α-tubulin expression (FIG. 4C).

histone H4 = experiment: Histone H4 acetylation, Western blot; assay type: cell-based, human; conditions: SCC4 cells, 6 h
Description: as §1, §2

α-tubulin = experiment: α-Tubulin acetylation in SCC4 cells, Western blot; assay type: cell-based, human; conditions: 3 15 nM; 36 or 39 10^−6 or 10^−7M; 6 h or 24 h, FIG. 6C
Description: as §1
FIG. 6 is a comparison of the HDAC inhibitory activities of 1, 3, 6, 36 or 39 as assessed by their effects on acetylation of alpha-tubulin. In A, SCC4 cells were incubated with vehicle or compound 1 (10^−6M), 3 (15 nM), 6 (10^−6M) and 36 (10^−6M), as indicated for 6 h and protein extracts were probed for total α-tubulin (Tub.) or acetylated α-tubulin (AcTub.) by Western blotting. Blots for acetylated alpha-tubulin and total alpha-tubulin are shown. In B, SCC4 cells were incubated with vehicle or compound 3 (15 nM), 6 (10^−6M) or 36 (10^−6M) as indicated for 6 h or 24 h and protein extracts were probed for acetylated α-tubulin (AcTub.) by Western blotting. In C, SCC4 cells were incubated with vehicle or compounds 3 (15 nM), 36 (10^−6 or 10^−7M) or 39 (10^−6 or 10^−7M) as indicated for 6 h or 24 h and protein extracts were probed for total α-tubulin (tub.) or acetylated α-tubulin (AcTub.) by Western blotting.
as §2
SCC4 cells were incubated with vehicle or compound as indicated for 6 h and cytoplasmic protein extracts were probed by Western blotting using a specific antibody for acetylated α-tubulin.

SCC25 cells = experiment: Antiproliferative activity in SCC25 cells; assay type: cell-based; conditions: 1 at 1 nM or 100 nM; 3 15 nM; combination 3 with 100 nM 1; FIG. 7B
Description: FIG. 7 is an illustration of the antiproliferative activities of 1 and 3, individually or in combination, in SCC4 cells (A) or in SCC25 cells (B) at the concentrations indicated.

SCC4 cells [2] = experiment: Acidic β-galactosidase activity (marker of autophagy), X-Gal staining and 620 nm measurement; assay type: cell-based, human; conditions: qualitative, FIG. 10A
Description: FIG. 10 is an illustration of the effects of 1, 3, 1+3 and 6 on the induction of acidic β-galactosidase activity, a marker of autophagy (A); FIG. 10 is an illustration of the effects 1, 3, 1+3 and 6 on the levels of β-galactosidase expression as obtained by measuring the indigo cleavage product of X-Gal at 620 nm (B).
Since it was observed that treatment with 1 could enhance cell death by autophagy (ref. 26), the effects of different treatments on the induction of acidic β-galactosidase activity, a marker of autophagy (FIG. 10A) was tested.

SCC4 cells [3] = experiment: Immunocytochemical and morphological analysis (mitotic catastrophe); assay type: cell-based, human
Description: FIG. 12 is an illustration of the immunocytochemical analysis of the effects of 1, 3, or 1 and 3 combined on SCC4 cells (A). […] Both phenotypes are characteristics of mitotic catastrophe. The lower panels (B) show cytoplasmic bridges between SCC4 cells treated with 1 and 3, consistent with the formation of the tubulin bridges seen above in A.
Assembly into microtubules is regulated by acetylation. […] Previous studies have shown that microtubule stabilizing agents can induce mitotic catastrophe (ref. 30). […] The formation of intercellular microtubular structures was consistent with observations in the light microscope of numerous intercellular bridges in cells treated with both 1 and 3 (FIG. 12B, arrows), but not in other treatment groups (not shown).

HDAC6 = HDAC6 (Homo sapiens, UniProt Q9UBN7); conditions: cited from earlier work
Chain of HDAC6 (Q9UBN7 whole entry, species assumed): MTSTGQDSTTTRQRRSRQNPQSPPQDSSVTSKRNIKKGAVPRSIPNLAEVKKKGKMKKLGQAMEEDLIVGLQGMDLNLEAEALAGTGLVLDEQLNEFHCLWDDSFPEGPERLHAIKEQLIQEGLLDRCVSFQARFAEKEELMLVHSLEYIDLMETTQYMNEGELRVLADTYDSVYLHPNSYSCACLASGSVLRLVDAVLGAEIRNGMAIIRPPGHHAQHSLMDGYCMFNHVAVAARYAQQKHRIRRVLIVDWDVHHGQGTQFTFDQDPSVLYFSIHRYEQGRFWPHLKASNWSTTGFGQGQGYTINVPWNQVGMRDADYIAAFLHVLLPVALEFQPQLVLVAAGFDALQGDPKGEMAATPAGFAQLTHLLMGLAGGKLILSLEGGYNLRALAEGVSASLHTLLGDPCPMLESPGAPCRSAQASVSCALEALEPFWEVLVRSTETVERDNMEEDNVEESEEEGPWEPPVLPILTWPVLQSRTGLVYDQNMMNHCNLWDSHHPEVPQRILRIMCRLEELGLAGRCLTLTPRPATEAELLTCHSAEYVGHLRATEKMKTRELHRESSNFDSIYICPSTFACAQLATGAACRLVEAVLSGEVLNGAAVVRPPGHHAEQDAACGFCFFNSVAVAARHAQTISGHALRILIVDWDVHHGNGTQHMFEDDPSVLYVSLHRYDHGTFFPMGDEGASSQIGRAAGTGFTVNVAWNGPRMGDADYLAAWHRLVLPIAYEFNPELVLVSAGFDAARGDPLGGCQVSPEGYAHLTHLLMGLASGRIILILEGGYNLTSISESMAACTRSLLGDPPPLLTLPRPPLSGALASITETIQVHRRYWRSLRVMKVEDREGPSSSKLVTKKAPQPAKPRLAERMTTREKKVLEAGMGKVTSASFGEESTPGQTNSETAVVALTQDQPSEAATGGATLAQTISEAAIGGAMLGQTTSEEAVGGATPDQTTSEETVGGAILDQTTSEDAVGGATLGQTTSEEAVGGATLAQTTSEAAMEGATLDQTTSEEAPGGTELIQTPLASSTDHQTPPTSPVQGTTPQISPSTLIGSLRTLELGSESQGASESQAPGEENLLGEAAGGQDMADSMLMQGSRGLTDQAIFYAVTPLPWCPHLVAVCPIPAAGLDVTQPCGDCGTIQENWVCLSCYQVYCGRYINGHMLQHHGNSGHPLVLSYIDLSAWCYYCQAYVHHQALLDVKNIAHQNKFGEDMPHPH

SCC4 cells [4] = experiment: Antiproliferative activity in SCC4 cells; conditions: 3 alone, data not shown

CC(/C=C/C(=O)NO)=C\[C@@H](C)C(=O)c1ccc(N(C)C)cc1 [compound 3, trichostatin A]
reporter gene activity (calcitriol agonist activity) (human VDR; COS7, 36 h, 1 100 nM, 3 15 nM, 6 100 nM, not normalized): no substantial effect | expression from the internal control plasmid (β-galactosidase) (human VDR; COS7 cells): modestly affects expression | acetylation of a 55 kDa protein, likely tubulin (SCC4 cells [1]; cytoplasmic extracts): markedly enhanced | acetylation of low molecular weight nuclear proteins (SCC4 cells [1]; nuclear extracts): markedly enhanced | histone H4 acetylation (histone H4): markedly enhanced | levels of acetylated alpha-tubulin normalized for total alpha-tubulin (α-tubulin): Elevated levels | SCC25 proliferation / sensitivity (SCC25 cells): substantially less sensitive | acidic β-galactosidase staining (X-Gal, pH 4.0), cytochemical (SCC4 cells [2]): weak or relatively modest effects | cell morphology (SCC4 cells [3]; FIG. 12): did not differ from control cells | induction of mitotic catastrophe (SCC4 cells [3]; SCC4 cells): not 1 or 3 alone | HDAC6 activity (HDAC6): can be blocked | SCC4 proliferation (SCC4 cells [4]; 50 nM): completely inhibited | cell death (SCC4 cells [4]; concentrations higher than 50 nM): substantial cell death

From patent publication US20100016435A1, “HYBRID MOLECULES HAVING MIXED VITAMIN D RECEPTOR AGONISM AND HISTONE DEACETYLASE INHIBITORY PROPERTIES” (McGill University, priority 2006, published 2010)
